Patent US11780893B2, “Kv1.3 blockers” (Zealand Pharma A/S, priority 2019, dated 2023)
Bridge positions count the residues as written; N and C are the ends. Peptide text beside a SMILES is read from it.

How the values were obtained:
Assay in all cases: cell-based
[1] = target: T1, human Kv1.3 voltage-gated K+ channel (Homo sapiens, UniProt P22001); settings: inhibition of thallium flux, CHO-DUKX cells with human Kv1.3; read-out: IC50
T1 construct: host or cells: CHO-DUKX

[2] = target: T2, Kv1.1 (Homo sapiens, UniProt Q09470); settings: for IC50: CHO cells, whole-cell patch clamp, read-out: Potency IC50 (nM) Kv1.1; for Selectivity Kv1.1/Kv1.3: ratio IC50[Kv1.1]/IC50[Kv1.3]
T2 construct: expressed in transfected cells; host or cells: Chinese Hamster Ovary (CHO)
T2 sequence (Q09470 whole entry): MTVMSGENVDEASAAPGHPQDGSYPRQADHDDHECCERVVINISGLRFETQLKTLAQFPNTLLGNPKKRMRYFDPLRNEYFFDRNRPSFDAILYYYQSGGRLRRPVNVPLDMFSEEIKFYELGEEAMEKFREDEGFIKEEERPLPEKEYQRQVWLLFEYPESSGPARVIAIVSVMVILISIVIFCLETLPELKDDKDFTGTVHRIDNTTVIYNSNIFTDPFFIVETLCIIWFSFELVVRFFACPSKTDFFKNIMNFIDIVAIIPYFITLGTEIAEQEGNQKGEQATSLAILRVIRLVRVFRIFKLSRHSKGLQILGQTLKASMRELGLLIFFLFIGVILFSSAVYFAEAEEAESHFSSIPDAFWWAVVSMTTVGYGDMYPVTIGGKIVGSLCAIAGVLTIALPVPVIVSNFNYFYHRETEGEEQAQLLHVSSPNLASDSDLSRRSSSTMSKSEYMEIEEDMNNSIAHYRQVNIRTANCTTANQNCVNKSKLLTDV

[3] = target: T3, Kv1.2 (Homo sapiens, UniProt P16389); settings: CHO cells, whole-cell patch clamp; read-out: Potency IC50 (nM) Kv1.2
T3 construct: expressed in transfected cells; host or cells: Chinese Hamster Ovary (CHO)
T3 sequence (P16389 whole entry): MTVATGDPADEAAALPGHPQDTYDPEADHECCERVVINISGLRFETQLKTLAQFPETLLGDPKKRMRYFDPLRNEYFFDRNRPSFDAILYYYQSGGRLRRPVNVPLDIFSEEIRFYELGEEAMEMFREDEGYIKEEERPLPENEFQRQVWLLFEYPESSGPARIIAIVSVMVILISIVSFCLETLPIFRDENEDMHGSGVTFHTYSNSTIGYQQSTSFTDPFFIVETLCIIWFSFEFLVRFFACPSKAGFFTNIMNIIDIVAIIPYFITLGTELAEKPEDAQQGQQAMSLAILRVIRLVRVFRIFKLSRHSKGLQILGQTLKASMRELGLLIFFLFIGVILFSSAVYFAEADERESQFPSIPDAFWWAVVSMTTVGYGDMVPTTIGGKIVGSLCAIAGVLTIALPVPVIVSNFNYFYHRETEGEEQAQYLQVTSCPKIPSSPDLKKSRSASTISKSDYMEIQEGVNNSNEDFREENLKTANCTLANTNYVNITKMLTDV

[4] = target: T4, Kv1.3 (Homo sapiens, UniProt P22001); settings: CHO cells, whole-cell patch clamp; read-out: Potency IC50 (nM) Kv1.3
T4 construct: expressed in transfected cells; host or cells: Chinese Hamster Ovary (CHO)
T4 sequence (P22001 whole entry): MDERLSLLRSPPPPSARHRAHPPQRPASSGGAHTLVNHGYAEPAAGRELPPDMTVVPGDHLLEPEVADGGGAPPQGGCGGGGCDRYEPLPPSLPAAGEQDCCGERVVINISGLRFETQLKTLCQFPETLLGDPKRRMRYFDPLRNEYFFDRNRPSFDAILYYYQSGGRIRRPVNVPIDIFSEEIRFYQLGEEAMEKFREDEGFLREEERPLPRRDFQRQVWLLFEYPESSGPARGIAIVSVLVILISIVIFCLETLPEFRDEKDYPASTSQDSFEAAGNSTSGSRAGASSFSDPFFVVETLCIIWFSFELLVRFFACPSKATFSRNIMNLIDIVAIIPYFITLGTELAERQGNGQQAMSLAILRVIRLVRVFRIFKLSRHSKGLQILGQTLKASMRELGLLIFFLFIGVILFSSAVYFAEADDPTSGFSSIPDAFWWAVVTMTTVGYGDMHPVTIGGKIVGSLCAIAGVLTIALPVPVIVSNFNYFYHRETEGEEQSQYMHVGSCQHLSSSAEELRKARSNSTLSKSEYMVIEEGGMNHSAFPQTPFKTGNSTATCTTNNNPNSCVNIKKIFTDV

[5] = target: T5, Kv1.6 (Homo sapiens, UniProt P17658); settings: for IC50: CHO cells, whole-cell patch clamp, read-out: Potency IC50 (nM) Kv1.6; for Selectivity Kv1.6/Kv1.3: ratio IC50[Kv1.6]/IC50[Kv1.3]
T5 construct: expressed in transfected cells; host or cells: Chinese Hamster Ovary (CHO)
T5 sequence (P17658 whole entry): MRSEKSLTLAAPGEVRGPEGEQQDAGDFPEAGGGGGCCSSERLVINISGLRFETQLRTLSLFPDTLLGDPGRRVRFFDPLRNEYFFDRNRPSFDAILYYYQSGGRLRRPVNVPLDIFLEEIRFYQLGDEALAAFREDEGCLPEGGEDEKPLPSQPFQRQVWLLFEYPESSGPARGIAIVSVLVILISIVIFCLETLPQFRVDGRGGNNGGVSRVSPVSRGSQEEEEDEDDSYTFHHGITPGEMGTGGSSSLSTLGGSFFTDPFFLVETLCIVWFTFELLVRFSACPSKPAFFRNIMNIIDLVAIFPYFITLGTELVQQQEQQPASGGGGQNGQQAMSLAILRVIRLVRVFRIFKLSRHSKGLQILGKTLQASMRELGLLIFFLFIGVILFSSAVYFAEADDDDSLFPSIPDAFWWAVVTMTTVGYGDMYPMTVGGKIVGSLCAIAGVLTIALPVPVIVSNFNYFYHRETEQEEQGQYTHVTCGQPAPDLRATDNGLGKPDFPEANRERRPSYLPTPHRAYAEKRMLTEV

T1 sequence (P22001 whole entry): as the sequence (P22001 whole entry) above

| Compound | IC50 [1] [nM] | IC50 [2] [nM] | Selectivity Kv1.1/Kv1.3 [2] | IC50 [3] [nM] | IC50 [4] [nM] | IC50 [5] [nM] | Selectivity Kv1.6/Kv1.3 [5] |
| --- | --- | --- | --- | --- | --- | --- | --- |
| CC[C@H](C)[C@@H]1NC(=O)[C@H](C)NC(=O)[C@H](CCCCN)NC(=O)[C@H](CC(C)C)NC(=O)[C@@H]2CSSC[C@@H](C(=O)N[C@@H](Cc3ccc(O)cc3)C(=O)N3CCC[C@H]3C(=O)N[C@@H](CCCNC(=N)N)C(=O)O)NC(=O)[C@H](CCCCN)NC(=O)[C@@H]3CSSC[C@H](NC(=O)[C@H](CCC(=O)O)NC(=O)[C@H](C(C)C)NC(=O)[C@H](CO)NC(=O)[C@H](C)NC(=O)[C@H](CO)NC(=O)[C@@H](NC(=O)[C@H](CCCNC(=N)N)NC(=O)[C@H](CCSC)NC(=O)[C@H](CCC(=O)O)NC(=O)[C@H](CCSC)NC(=O)[C@@H](N)CC(N)=O)CSSC[C@H](NC(=O)[C@H](CCCCN)NC(=O)CNC(=O)[C@H](Cc4ccccc4)NC(=O)[C@H]([C@@H](C)CC)NC(=O)[C@H](CO)NC(=O)CNC1=O)C(=O)N[C@@H](CCSC)C(=O)N[C@@H](CC(N)=O)C(=O)N[C@@H](CCCCN)C(=O)N[C@@H](CCCCN)C(=O)N3)C(=O)N[C@@H](CCCCN)C(=O)N[C@@H](CCC(N)=O)C(=O)N[C@@H](CCCCN)C(=O)N2 [Compound 12] (H-NMEMRCSASVECKQKCLKAIGSIFGKCMNKKCKCYPR-OH; disulfide 6-27, 12-32, 16-34) | 0.23 | > 3000 | >27600 | 228 | 0.11 | > 3000 | >27600 |
| CC[C@H](C)[C@@H]1NC(=O)[C@H](CO)NC(=O)CNC(=O)[C@H](Cc2ccc(O)cc2)NC(=O)[C@H](C)NC(=O)[C@H](CCCCN)NC(=O)[C@H](CC(C)C)NC(=O)[C@@H]2CSSC[C@@H](C(=O)N[C@@H](Cc3ccc(O)cc3)C(=O)N3CCC[C@H]3C(=O)N[C@@H](CCCNC(=N)N)C(N)=O)NC(=O)[C@H](CCCCN)NC(=O)[C@@H]3CSSC[C@H](NC(=O)[C@H](CCC(=O)O)NC(=O)[C@H](C(C)C)NC(=O)[C@H](CO)NC(=O)[C@H](C)NC(=O)[C@H](CO)NC(=O)[C@@H](NC(=O)[C@H](CCCNC(=N)N)NC(=O)[C@H](CCSC)NC(=O)[C@H](CC(=O)O)NC(=O)[C@H](CCSC)NC(=O)[C@@H](N)CC(N)=O)CSSC[C@H](NC(=O)[C@H](CCCCN)NC(=O)CNC(=O)[C@H](Cc4ccccc4)NC1=O)C(=O)N[C@@H](CCSC)C(=O)N[C@@H](CC(N)=O)C(=O)N[C@@H](CCCCN)C(=O)N[C@@H](CCCCN)C(=O)N3)C(=O)N[C@@H](CCCCN)C(=O)N[C@@H](CCC(N)=O)C(=O)N[C@@H](CCCCN)C(=O)N2 [Compound 58] (H-NMDMRCSASVECKQKCLKAYGSIFGKCMNKKCKCYPR-NH2; disulfide 6-27, 12-32, 16-34) | 0.11 | > 3000 | >8800 | 145 | 0.34 | > 3000 | >8800 |
| CC[C@H](C)[C@@H]1NC(=O)[C@H](CCCNC(=N)N)NC(=O)[C@H](CCCCN)NC(=O)[C@H](CC(C)C)NC(=O)[C@@H]2CSSC[C@@H](C(=O)N[C@@H](Cc3ccc(O)cc3)C(=O)N3CCC[C@H]3C(=O)N[C@@H](CCCNC(=N)N)C(N)=O)NC(=O)[C@H](CCCCN)NC(=O)[C@@H]3CSSC[C@H](NC(=O)[C@H](CCC(=O)O)NC(=O)[C@H](C(C)C)NC(=O)[C@H](CO)NC(=O)[C@H](C)NC(=O)[C@H](CO)NC(=O)[C@@H](NC(=O)[C@H](CCCNC(=N)N)NC(=O)[C@H](CCSC)NC(=O)[C@H](CC(=O)O)NC(=O)[C@H](CCSC)NC(=O)[C@@H](N)CC(N)=O)CSSC[C@H](NC(=O)[C@H](CCCCN)NC(=O)CNC(=O)[C@H](Cc4ccccc4)NC(=O)[C@H]([C@@H](C)CC)NC(=O)[C@H](CO)NC(=O)CNC1=O)C(=O)N[C@@H](CCSC)C(=O)N[C@@H](CC(N)=O)C(=O)N[C@@H](CCCCN)C(=O)N[C@@H](CCCCN)C(=O)N3)C(=O)N[C@@H](CCCCN)C(=O)N[C@@H](CCC(N)=O)C(=O)N[C@@H](CCCCN)C(=O)N2 [Compound 56] (H-NMDMRCSASVECKQKCLKRIGSIFGKCMNKKCKCYPR-NH2; disulfide 6-27, 12-32, 16-34) | 0.087 | > 3000 | >9900 | 57 | 0.3 | 932 |  |
